Reference: the NIST ThermoML archive (doi:10.1016/j.tca.2004.12.012)
± gives the expanded uncertainty stated by the source.

Settings: Crystal 2; DTA

In the case of `[Br-].[Na+]` [sodium bromide], the Triple point temperature is reported as 1114 ± 3 K.
